Experimental data published in ChEMBL document CHEMBL1201862, “PubChem BioAssay data set” (2004).
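1) Cells in 96-well plates. 2) Compound, 48 h, 5 concentrations. 3) Linear interpolation between surrounding doses. 4) Unreached endpoint = highest concentration. At the GI50, growth is halved.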 Calls of active or inactive are those of the source. No stated cut-off is given here; in the data, active = GI50 up to about 1.1 µM and inactive = higher.

Experiments:
Experiment in all cases: DTP human tumour cell line panel, 48 h
[1] = test system: SK-OV-3
[2] = test system: T47D
[3] = test system: OVCAR-4
[4] = test system: UACC-62
[5] = test system: OVCAR-8
[6] = test system: SF-295
[7] = test system: RXF 393
[8] = test system: IGROV-1
[9] = test system: MOLT-4
[10] = test system: HL-60
[11] = test system: MCF7
[12] = test system: HOP-92
[13] = test system: HOP-62
[14] = test system: COLO 205
[15] = test system: HCT-116
[16] = test system: U-251
[17] = test system: SW-620
[18] = test system: Malme-3M
[19] = test system: OVCAR-5
[20] = test system: CAKI-1

Measured: GI50

N#CC1(C#N)C2C=CC(C3CCC=C32)C1(C#N)C#N (stereo not given)
inactive: [1] > 10 µM | [2] > 5.33 µM | [3] > 10 µM | [4] > 10 µM | [5] > 10 µM | [6] > 10 µM | [7] > 10 µM | [8] > 10 µM | [9] 2.14 µM | [10] 1.68 µM | [11] > 8.2 µM | [12] > 10 µM | [13] > 10 µM | [14] 1.94 µM | [15] > 6.56 µM | [16] > 10 µM | [17] 1.77 µM | [18] 2.57 µM | [19] > 10 µM | [20] 6.37 µM
